Experiments:
Type in all cases: physicochemical
[1] = Specific powder surface area by nitrogen gas sorption (BET); conditions: triplicate, trihydrate
Description: Specific powder surface area was determined using nitrogen gas sorption (Smartsorb, Smart Instruments, Mumbai, India). Prior to measurements, samples were regenerated by degassing to remove moisture and contamination. The regenerated sample was dipped in liquid nitrogen and the quantity of the adsorbed gas was measured using a thermal conductivity detector and subsequently integrated using an electronic circuit in terms of counts. The instrument was calibrated by injecting a known quantity of nitrogen. The measured parameters were subsequently used to calculate the surface area of the sample by employing the adsorption theories of Brunauer, Emmett and Teller (BET).
(§1) Parameters operated were: • Augar Speed: 5-90 rpm • Primary Air Pressure: 2-8 kg·cm^−2 • Secondary Air Pressure: 4-10 kg·cm^−2 The surface area (in triplicate), average particle size and contact angle (in quadruplicate) were determined as outlined in the General section. The purity of the amoxicillin trihydrate samples was 99.4±0.3% and were void of dichloromethane, isopropanol, pivalic acid and triethyl amine.

[2] = Particle size distribution by laser diffraction (Malvern); conditions: trihydrate
Description: Particle size distribution values D10, D50, D90 and D100 were determined using laser diffraction applying Malvern equipment. A suitable apparatus for determining D10, D50, D90 and D100 is a Malvern particle sizer 2600 C or a Malvern Zeta Sizer.
as §1

[3] = Contact angle by sessile drop method (water); conditions: ambient conditions, trihydrate
Description: Contact angles of amoxicillin trihydrate powder samples were measured by the sessile drop method using an Drop Shape Analyzer instrument (FTA 1000, First Ten Angstrom, Virginia, USA). Powder samples were mounted on double sided adhesive tape adhered to a glass slide and excess powder was removed by tapping the slide. A drop of probe liquid (water) was dispersed onto the sample surface and video images were captured by the FTA image analyzer. The contact angle was calculated by the instrument by fitting a mathematical expression to the shape of the drop followed by calculating the slope of the tangent to the drop at the liquid-solid-vapor interface line. The surface tension of ultrapure ELGA laboratory water was measured to be 73±0.5 mN·m^−1 at 25° C. All measurements were performed in air under ambient conditions and an average of four measurements was reported in the below Examples.
as §1

[4] = Powder dissolution, USP/NF paddle method with HPLC analysis; conditions: 500 mg in 900 mL water, 37 °C, 75 rpm; for Amoxicillin released in solution Mean: mean of 3; for Amoxicillin released in solution #1: replicate #1; for Amoxicillin released in solution #2: replicate #2; for Amoxicillin released in solution #3: replicate #3
Description: Dissolution analysis of amoxicillin trihydrate powder samples was carried out using the USP/NF paddle method at a rotational speed of 75 rpm. Ultrapure ELGA laboratory water (900 mL) was used as dissolution medium. Media were equilibrated to 37.0±0.5° C. prior to dissolution. Amoxicillin trihydrate sample powder (500 mg) was directly added to the dissolution apparatus (Electrolab USP-24, India). Samples were collected at 0, 1, 3, 5, 10, 15, 30, 60 and 90 min, filtered through 0.2 μm filters and analyzed by HPLC. Dissolution profiles were constructed by plotting the percentage amoxicillin released against time.
The HPLC system (Shimadzu Corporation, Kyoto, Japan) comprised of an SCL-10A VP system controller, LC-10AT VP liquid chromatograph, FCV-10AL VP flow control valve, DGU-14A degasser, SIL-10AD VP auto-injector, CTO-10AS VP column oven, SPD-M20A prominence diode array (PDA) detector and data acquisition Class-VP 6.10 software. The HPLC method was adopted from the United States Pharmacopoeia (USP). The method was validated for linearity, precision, accuracy and intra- and inter-day variability. The mobile phase was 50 mM monobasic potassium phosphate:methanol (96:4, v/v, pH 5.0). All analyses were carried out using Lichrospher® 100 RP-18e analytical column (5 μm, Merck KGaA, Darmstadt, Germany) under isocratic conditions at a flow rate of 1.0 mL·min^−1 at 25° C. with 20 μL injection volume. Effluent was monitored at a wavelength of 230 nm. Samples for calibration curve generation were prepared in 50 mM monobasic potassium phosphate:methanol 1:1 (v/v) proportion at a concentration range of 1 to 600 μg·mL^−1.
The three non-micronized (i.e. entries 1-3 of Table 1) and micronized (i.e. entries 4-6 of Table 1) amoxicillin trihydrate samples of Example 1 were subjected to a powder dissolution test (in triplicate) as outlined in the General section.

Question: Which results are given for `CC1(C)S[C@@H]2[C@H](NC(=O)[C@H](N)c3ccc(O)cc3)C(=O)N2[C@H]1C(=O)O.O.O.O` [entry 6, amoxicillin trihydrate]?
Answer: Surface Area Mean ± SD (n = 3) [1]: 1.69 ± 0.07 m^2 · g^−1; Average Particle Size D10 [2]: 1.9 μm; Average Particle Size D50 [2]: 10.0 μm; Average Particle Size D90 [2]: 22.4 μm; Average Particle Size D100 [2]: 38.9 μm; Contact Angle Mean ± SD (n = 4) [3]: 107.84 ± 1.72; Amoxicillin released in solution Mean ([4]; 0 min): 0%; Amoxicillin released in solution #1 ([4]; 0 min): 0%; Amoxicillin released in solution #2 ([4]; 0 min): 0%; Amoxicillin released in solution #3 ([4]; 0 min): 0%; Amoxicillin released in solution Mean ([4]; 1 min, trihydrate): 70.68%; Amoxicillin released in solution #1 ([4]; 1 min, trihydrate): 70.98%; Amoxicillin released in solution #2 ([4]; 1 min, trihydrate): 72.37%; Amoxicillin released in solution #3 ([4]; 1 min, trihydrate): 68.67%; Amoxicillin released in solution Mean ([4]; 3 min, trihydrate): 79.56%; Amoxicillin released in solution #1 ([4]; 3 min, trihydrate): 82.73%; Amoxicillin released in solution #2 ([4]; 3 min, trihydrate): 76.25%; Amoxicillin released in solution #3 ([4]; 3 min, trihydrate): 79.68%; Amoxicillin released in solution Mean ([4]; 5 min, trihydrate): 82.60%; Amoxicillin released in solution #1 ([4]; 5 min, trihydrate): 84.40%; Amoxicillin released in solution #2 ([4]; 5 min, trihydrate): 78.46%; Amoxicillin released in solution #3 ([4]; 5 min, trihydrate): 84.94%; Amoxicillin released in solution Mean ([4]; 10 min, trihydrate): 85.67%; Amoxicillin released in solution #1 ([4]; 10 min, trihydrate): 85.63%; Amoxicillin released in solution #2 ([4]; 10 min, trihydrate): 82.85%; Amoxicillin released in solution #3 ([4]; 10 min, trihydrate): 88.53%; Amoxicillin released in solution Mean ([4]; 15 min, trihydrate): 88.11%; Amoxicillin released in solution #1 ([4]; 15 min, trihydrate): 87.94%; Amoxicillin released in solution #2 ([4]; 15 min, trihydrate): 85.45%; Amoxicillin released in solution #3 ([4]; 15 min, trihydrate): 90.95%; Amoxicillin released in solution Mean ([4]; 30 min, trihydrate): 96.85%; Amoxicillin released in solution #1 ([4]; 30 min, trihydrate): 96.08%; Amoxicillin released in solution #2 ([4]; 30 min, trihydrate): 96.66%; Amoxicillin released in solution #3 ([4]; 30 min, trihydrate): 97.81%; Amoxicillin released in solution Mean ([4]; 60 min, trihydrate): 99.37%; Amoxicillin released in solution #1 ([4]; 60 min, trihydrate): 99.56%; Amoxicillin released in solution #2 ([4]; 60 min, trihydrate): 98.85%; Amoxicillin released in solution #3 ([4]; 60 min, trihydrate): 99.69%; Amoxicillin released in solution Mean ([4]; 90 min, trihydrate): 98.76%; Amoxicillin released in solution #1 ([4]; 90 min, trihydrate): 97.01%; Amoxicillin released in solution #2 ([4]; 90 min, trihydrate): 99.48%; Amoxicillin released in solution #3 ([4]; 90 min, trihydrate): 99.78%

Question: Which “Surface Area Mean ± SD (n = 3)” value [1] does the source give for `CC1(C)S[C@@H]2[C@H](NC(=O)[C@H](N)c3ccc(O)cc3)C(=O)N2[C@H]1C(=O)O.O.O.O` [entry 3, amoxicillin trihydrate] here?
Answer: Its value is 0.72 ± 0.16 m^2 · g^−1.

Question: What about the “Average Particle Size D10” value [2] of the same molecule?
Answer: Its value is 13.1 μm.

Question: And the “Average Particle Size D50” value [2]?
Answer: The value was 39.3 μm.

Question: And the “Average Particle Size D90” value [2]?
Answer: Its value is 91.7 μm.

Question: What about the “Average Particle Size D100” value [2] of the same molecule?
Answer: The value was 230.1 μm.

Question: And the “Contact Angle Mean ± SD (n = 4)” value [3]?
Answer: Its value is 71.54 ± 1.08.

Question: And the “Amoxicillin released in solution Mean” value ([4]; 0 min)?
Answer: The value was 0%.

Question: And the “Amoxicillin released in solution #1” value ([4]; 0 min)?
Answer: The value was 0%.

Question: What about the “Amoxicillin released in solution #2” value ([4]; 0 min) of the same molecule?
Answer: Its value is 0%.

Question: And the “Amoxicillin released in solution #3” value ([4]; 0 min)?
Answer: Its value is 0%.

Question: What about the “Amoxicillin released in solution Mean” value ([4]; 1 min, trihydrate) of the same molecule?
Answer: The value was 59.73%.

Question: And the “Amoxicillin released in solution #1” value ([4]; 1 min, trihydrate)?
Answer: Its value is 57.32%.

Question: What about the “Amoxicillin released in solution #2” value ([4]; 1 min, trihydrate) of the same molecule?
Answer: The value was 60.63%.

Question: What about the “Amoxicillin released in solution #3” value ([4]; 1 min, trihydrate) of the same molecule?
Answer: Its value is 61.23%.

Question: And the “Amoxicillin released in solution Mean” value ([4]; 3 min, trihydrate)?
Answer: The value was 97.65%.

Question: What about the “Amoxicillin released in solution #1” value ([4]; 3 min, trihydrate) of the same molecule?
Answer: The value was 96.94%.

Question: And the “Amoxicillin released in solution #2” value ([4]; 3 min, trihydrate)?
Answer: Its value is 97.25%.

Question: And the “Amoxicillin released in solution #3” value ([4]; 3 min, trihydrate)?
Answer: Its value is 98.77%.

Question: What about the “Amoxicillin released in solution Mean” value ([4]; 5 min, trihydrate) of the same molecule?
Answer: The value was 99.78%.

Question: And the “Amoxicillin released in solution #1” value ([4]; 5 min, trihydrate)?
Answer: The value was 99.68%.

Question: What about the “Amoxicillin released in solution #2” value ([4]; 5 min, trihydrate) of the same molecule?
Answer: The value was 100.87%.

Question: And the “Amoxicillin released in solution #3” value ([4]; 5 min, trihydrate)?
Answer: Its value is 98.80%.

Question: What about the “Amoxicillin released in solution Mean” value ([4]; 10 min, trihydrate) of the same molecule?
Answer: Its value is 99.25%.

Question: What about the “Amoxicillin released in solution #1” value ([4]; 10 min, trihydrate) of the same molecule?
Answer: Its value is 99.06%.

Question: What about the “Amoxicillin released in solution #2” value ([4]; 10 min, trihydrate) of the same molecule?
Answer: Its value is 99.42%.

Question: And the “Amoxicillin released in solution #3” value ([4]; 10 min, trihydrate)?
Answer: The value was 99.27%.

Question: And the “Amoxicillin released in solution Mean” value ([4]; 15 min, trihydrate)?
Answer: The value was 100.29%.

Question: And the “Amoxicillin released in solution #1” value ([4]; 15 min, trihydrate)?
Answer: Its value is 100.69%.

Question: What about the “Amoxicillin released in solution #2” value ([4]; 15 min, trihydrate) of the same molecule?
Answer: Its value is 100.64%.

Question: What about the “Amoxicillin released in solution #3” value ([4]; 15 min, trihydrate) of the same molecule?
Answer: The value was 99.55%.

Question: And the “Amoxicillin released in solution Mean” value ([4]; 30 min, trihydrate)?
Answer: Its value is 99.18%.

Question: And the “Amoxicillin released in solution #1” value ([4]; 30 min, trihydrate)?
Answer: Its value is 99.21%.

Question: What about the “Amoxicillin released in solution #2” value ([4]; 30 min, trihydrate) of the same molecule?
Answer: Its value is 99.18%.

Question: What about the “Amoxicillin released in solution #3” value ([4]; 30 min, trihydrate) of the same molecule?
Answer: Its value is 99.14%.

Question: And the “Amoxicillin released in solution Mean” value ([4]; 60 min, trihydrate)?
Answer: Its value is 100.16%.

Question: What about the “Amoxicillin released in solution #1” value ([4]; 60 min, trihydrate) of the same molecule?
Answer: The value was 99.14%.

Question: And the “Amoxicillin released in solution #2” value ([4]; 60 min, trihydrate)?
Answer: Its value is 100.41%.

Question: What about the “Amoxicillin released in solution #3” value ([4]; 60 min, trihydrate) of the same molecule?
Answer: The value was 100.92%.

Question: What about the “Amoxicillin released in solution Mean” value ([4]; 90 min, trihydrate) of the same molecule?
Answer: Its value is 99.44%.

Question: What about the “Amoxicillin released in solution #1” value ([4]; 90 min, trihydrate) of the same molecule?
Answer: The value was 99.58%.

Question: And the “Amoxicillin released in solution #2” value ([4]; 90 min, trihydrate)?
Answer: The value was 99.28%.

Question: And the “Amoxicillin released in solution #3” value ([4]; 90 min, trihydrate)?
Answer: Its value is 99.46%.

Reference: US9820943B2, “Micronized amoxicillin” (DSM SINOCHEM PHARMACEUTICALS NETHERLANDS B.V., priority 2013, dated 2017)
